Reference: paper PMC9814205, “Targeting undruggable carbohydrate recognition sites through focused fragment library design” (Communications Chemistry, 2022)
“Also recorded” adds a separate entry of the source.

Experiments:
Langerin and DC-SIGN = settings: cited from earlier work
DC-SIGN = settings: stated in SI text, method and reference not given; cited from earlier work
LecA [1] = target: T1, LecA (Pseudomonas aeruginosa, UniProt Q05097); settings: positive control in FP assay, unit inferred; cited from earlier work
T1 construct: made in house
T1 sequence (Q05097 whole entry): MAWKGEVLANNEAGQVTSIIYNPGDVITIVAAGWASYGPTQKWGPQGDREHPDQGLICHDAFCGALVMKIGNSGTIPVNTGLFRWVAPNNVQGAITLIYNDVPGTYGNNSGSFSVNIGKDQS

5FW LecA (PA-IL) = target: T2, 5FW LecA (PA-IL) (Pseudomonas aeruginosa, UniProt Q05097); assay: PrOF NMR with 5-fluorotryptophan-labeled LecA; assay type: binding
T2 construct: made in house
T2 sequence (Q05097 2-122): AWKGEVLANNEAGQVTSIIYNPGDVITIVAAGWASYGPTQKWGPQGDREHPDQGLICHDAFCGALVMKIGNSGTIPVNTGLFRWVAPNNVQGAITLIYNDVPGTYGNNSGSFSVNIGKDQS
Description: PrOF NMR was performed as reported previously. Briefly, 150 µM 5FW LecA was recorded alone and in the presence of DMSO or 2–4 mM compounds in TBS/Ca^2+ buffer. The difference in chemical shift perturbations of W42 in 5FW LecA free vs bound forms was followed to determine Kd values of compounds. The Kd values were calculated according to the one-site-binding model in Origin(Pro) 2020b (OriginLab Corp., USA) from two or three independent titrations. Ligand efficiency values were calculated according to Eq. (1) for a temperature of 310 K.

DC-SIGN CRD (CD209) = target: T3, DC-SIGN CRD (CD209) (Homo sapiens, UniProt Q9NNX6); assay: 1H-15N HSQC NMR with 15N DC-SIGN CRD; assay type: binding
T3 construct: the carbohydrate recognition domain (CRD) of DC-SIGN in ^1H-^15N HSQC/TROSY NMR experiments; made in house
T3 sequence (Q9NNX6 263-378 limits assumed): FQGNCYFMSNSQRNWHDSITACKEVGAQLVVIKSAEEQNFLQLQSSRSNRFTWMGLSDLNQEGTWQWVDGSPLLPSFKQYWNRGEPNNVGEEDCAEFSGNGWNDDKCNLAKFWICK
Description: (§1) The ^1H-^15N TROSY pulse sequence trosyf3gpphsi19 with 128 increments and 32 scans per increment was applied for 0.15 mM ^15N LecA and 0.07 mM LecB in HBS/Ca^2+ buffer (20 mM HEPES pH 7.4, 150 mM NaCl, 10 mM CaCl2, 10% D2O and 100 µM sodium trimethylsilylpropanesulfonate (DSS) as internal reference) at 310 K. The ^1H-^15N HSQC pulse sequence hsqcf3gpph19 with 128 increments and 8 scans per increment was applied for 0.1 mM ^15N DC-SIGN and Langerin CRD in HBS/Ca^2+ buffer at 298 K. For screening of 650 non-fluorinated fragments of the general library against ^15N LecA, a mix of 10 compounds at 1 mM each was combined with 0.15 mM ^15N LecA in HBS/Ca^2+ buffer (20 mM HEPES pH 7.4, 150 mM NaCl, 10 mM CaCl2, 10% D2O and 100 µM sodium trimethylsilylpropanesulfonate (DSS) as internal reference, whereas the fragments with the MBP scaffolds were validated separately at 1 mM. Similarly, 9 nonfluorinated fragments from the MBP library were screened against ^15N-labeled DC-SIGN, LecA and LecB. To validate the fragment binding to proteins, we recorded ^1H-^15N HSQC and TROSY NMR of proteins in the presence of DMSO as negative control and 2 mM fragments in HBS/Ca^2+ buffer. Natural ligands were used as positive controls at 1 mM MeGal, MeFuc and 30 mM D-mannose to LecA/LecB and DC-SIGN CRD/Langerin CRD, respectively. Titration experiments with ^15N-labeled DC-SIGN CRD or LecB were recorded in HBS/Ca^2+ buffer with 30 mM CaCl2 and 0.25 to 4–8 mM malonic acid derivatives. The Kd values were calculated according to the one-site-binding model in Origin(Pro) 2020b (OriginLab Corp., USA). Ligand efficiency calculations were done according to Eq. (1) for a temperature of 298 K and 310 K for DC-SIGN CRD and LecB, respectively.1 LE=RTlnKd/HA, with the temperature T [K], the gas constant R [kcal mol^−1 K^−1], and the number of non-hydrogen atoms HA[56].
All data were processed with NMRpipe[65] and analyzed with CcpNmr analysis. For data analysis, the protein fingerprint of ^15N DC-SIGN (Table S7) or Langerin CRD was assigned as reported previously. The ^1H-^15N TROSY resonances of ^15N LecA and ^15N LecB were indexed with IDs due to a lack of protein backbone resonance assignment (Tables S8-S9). Next, resonance IDs from protein spectra were transferred to the spectra obtained in the presence of compounds in order to compare the changes in chemical shift perturbations for the fast exchange peaks. The changes in chemical shift perturbations (CSPs) were calculated according to Eq. (2):2 △δ=1/2△δH2+α△δN^2 in which δ is the difference in chemical shift (in ppm) and α is an empirical weighting factor of 0.14 for all amino acid backbone resonances. The threshold value was set based on three independent measurements of reference spectra to 0.01 ppm for LecA, LecB, DC-SIGN CRD and Langerin CRD.

LecB (PA-IIL) = target: T4, LecB (PA-IIL) (Pseudomonas aeruginosa, UniProt Q9HYN5); assay: 1H-15N TROSY NMR with 15N LecB; assay type: binding
T4 construct: made in house
T4 sequence (Q9HYN5 entry or part of it): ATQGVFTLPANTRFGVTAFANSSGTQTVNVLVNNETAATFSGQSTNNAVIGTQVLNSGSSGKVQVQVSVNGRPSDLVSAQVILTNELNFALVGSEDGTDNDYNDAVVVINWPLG
Description: as §1, with “Ligand efficiency calculations were done according to Eq. (1) for a temperature of 298 K and 310 K for DC-SIGN CRD and LecB, respectively.1 LE=RTlnKd/HA, with the temperature T [K], the gas constant R [kcal mol^−1 K^−1], and the number of non-hydrogen atoms HA[56].” left out
All data were processed with NMRpipe[65] and analyzed with CcpNmr analysis. […] The changes in chemical shift perturbations (CSPs) were calculated according to Eq. (2):2 △δ=1/2△δH2+α△δN^2 in which δ is the difference in chemical shift (in ppm) and α is an empirical weighting factor of 0.14 for all amino acid backbone resonances. […]

DC-SIGN^+ Raji cells = target: T5, DC-SIGN^+ Raji cells (Homo sapiens, UniProt Q9NNX6); assay: cellFy cell-based assay, FITC-dextran binding by flow cytometry; settings: D-mannose positive control
T5 construct: expressed in transfected cells; host or cells: Raji cells (DC-SIGN+)
T5 sequence (Q9NNX6 1-404): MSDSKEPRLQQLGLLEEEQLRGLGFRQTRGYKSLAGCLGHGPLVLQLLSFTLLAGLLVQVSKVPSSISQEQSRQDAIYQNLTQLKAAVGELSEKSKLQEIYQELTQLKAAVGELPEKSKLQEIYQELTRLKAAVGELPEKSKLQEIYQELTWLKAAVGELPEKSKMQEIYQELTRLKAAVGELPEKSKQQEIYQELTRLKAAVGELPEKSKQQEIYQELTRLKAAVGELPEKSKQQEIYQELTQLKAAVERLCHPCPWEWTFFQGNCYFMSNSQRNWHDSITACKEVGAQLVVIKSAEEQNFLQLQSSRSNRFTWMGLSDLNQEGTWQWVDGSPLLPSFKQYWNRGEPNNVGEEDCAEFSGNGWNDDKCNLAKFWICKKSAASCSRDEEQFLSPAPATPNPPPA
Description: (§2) The cellFy experiments using Langerin^+ and DC-SIGN^+ Raji cell lines were performed as described before. Briefly, 50k cells were plated in a 96-well plate (clear, round bottom; Greiner Bio-One and mixed with varying concentrations of malonates 58, D-mannose and 0.025 mg mL^−1 FITC-conjugated dextran (500 kDa, Sigma Aldrich) in a final volume of 50 µL following incubation for 30 min on ice. After centrifugation at 500 g for 3 min at 4 °C, the supernatant was discarded. After washing cells were treated with 50 µL 4 % paraformaldehyde (Roti-Histofix, Carl Roth) for 20 min on ice and resuspended in 100 µL fresh culture medium. The fluorescence of cells was measured by flow cytometry (MACSQuant Analyzer 16). Data was analyzed in FlowJo.

Raji cells = assay: Cytotoxicity observed in cellFy; assay type: cell-based; settings: at low concentrations; up to 10 mM
Description: as §2

LecA [2] = target: T1, LecA; settings: carbohydrate ligand; cited from earlier work

In the case of OC[C@H]1OC(O)[C@@H](O)[C@@H](O)[C@@H]1O (stereo partly drawn) [D-mannose], the Kd (Langerin and DC-SIGN) is given as 3500 to 6100 µM and the Kd (DC-SIGN) is given as 3000 µM.

In the case of CC(=O)N[C@H]1C(O)O[C@H](CO)[C@H](O)[C@@H]1O (some centres unmarked) [GalNAc], the IC50 (LecA [1]) is given as 1230 ± 200 µM.

In the case of O=C(O)C(C(=O)O)C1CCC(F)(F)C1 (centres unmarked) [compound 58], the “binding to 5FW LecA (perturbation of W42) in PrOF NMR” value (5FW LecA (PA-IL); 2 mM compound) is reported as “perturbed W42”, the “W2 [ppm]” value (5FW LecA (PA-IL); 19F resonance of 0.15 mM 5FW LecA with 2 mM compound, DMSO 121.43) is reported as 121.47 ppm and the “W33 [ppm]” value (5FW LecA (PA-IL); 19F resonance of 0.15 mM 5FW LecA with 2 mM compound, DMSO 121.67) is reported as 121.77 ppm. For the same compound, the “W84 [ppm]” value (5FW LecA (PA-IL); 19F resonance of 0.15 mM 5FW LecA with 2 mM compound, DMSO 123.50) was 123.53 ppm, the Kd (DC-SIGN CRD (CD209); 15N DC-SIGN CRD, titration, one-site binding model, 30 mM CaCl2) was 1200 ± 500 µM and the LE (DC-SIGN CRD (CD209); ligand efficiency calculated from Kd for DC-SIGN CRD, 298 K) was 0.28 kcal mol^−1 HA^−1. For the same compound, the Kd (LecB (PA-IIL)) was 1200 ± 400 µM, the LE (LecB (PA-IIL); ligand efficiency calculated from Kd for LecB, 310 K) was 0.29 kcal mol^−1 HA^−1 and the “inhibition of FITC-dextran binding / binding to DC-SIGN^+ cells” value (DC-SIGN^+ Raji cells) was “inhibited FITC-dextran binding to DC-SIGN similarly to D-mannose; also recorded: specifically bound to DC-SIGN^+ cells”. The cytotoxicity (Raji cells) was “negligible cytotoxicity; also recorded: low cytotoxicity”.

In the case of OC[C@H]1O[C@H](O)[C@H](O)[C@@H](O)[C@H]1O [α-D-galactose], the Kd (LecA [2]) is given as 50 µM.
